In paper PMC2724842 (Biochemistry, 2009):
Entries after “also recorded” stand apart in the source; their conditions may differ. Marks after values point to notes of the source that are not given here.

Assays:
Y169F IPMS = Y169F IPMS (Mycobacterium tuberculosis, UniProt P9WQB3, Y169F); format: biochemical; conditions: for Km: read-out: K1 (Km)
Y410F IPMS [1] = biological target: T1, Y410F IPMS (Mycobacterium tuberculosis, UniProt P9WQB3, Y410F); format: biochemical; conditions: for Km: read-out: K1 (Km)
H379A IPMS [2] = biological target: T2, H379A IPMS (Mycobacterium tuberculosis, UniProt P9WQB3, H379A); format: biochemical
E218A IPMS [3] = biological target: T3, E218A IPMS (Mycobacterium tuberculosis, UniProt P9WQB3, E218A); format: biochemical
Y410F IPMS [4] = biological target: T1, Y410F IPMS; format: biochemical
E218A IPMS [5] = biological target: T3, E218A IPMS; format: binding
Y169F MtIPMS = Y169F MtIPMS (Mycobacterium tuberculosis, UniProt P9WQB3, Y169F); format: biochemical
Y410F IPMS [6] = biological target: T1, Y410F IPMS; format: binding
H379A IPMS [7] = biological target: T2, H379A IPMS; format: biochemical; remark: listed apart in the source
E218A IPMS [8] = biological target: T3, E218A IPMS; format: biochemical; remark: listed apart in the source

CC(=O)SCCNC(=O)CCNC(=O)[C@H](O)C(C)(C)COP(=O)(O)OP(=O)(O)OC[C@H]1O[C@@H](n2cnc3c(N)ncnc32)[C@H](O)[C@@H]1OP(=O)(O)O [Acetyl-CoA, acetyl-coenzyme A]
kcat1 (kcat) (Y169F IPMS): 5.67 ± 0.217 s⁻¹
Km (Y169F IPMS): 40 ± 6 µM
kcat1 (kcat) (Y410F IPMS [1]): 0.0933 ± 0.0033 s⁻¹
Km (Y410F IPMS [1]): 1.1 ± 0.2 µM
kcat1 (kcat) (H379A IPMS [2]): 2.55 ± 0.033 s⁻¹
Km (H379A IPMS [2]; read-out: K1 (Km)): 23 ± 1.5 µM
K1 (E218A IPMS [3]): 9.5 ± 1.1 µM
K2 (E218A IPMS [3]): 697 ± 615 µM
kcat1 (E218A IPMS [3]): 0.0583 ± 0.0033 s⁻¹
kcat2 (E218A IPMS [3]): 0.0933 ± 0.0467 s⁻¹

CC(C)C[C@H](N)C(=O)O [L-leucine]
sensitivity to L-leucine inhibition (Y410F IPMS [4]): insensitive
N (stoichiometry for binding) (E218A IPMS [5]): 0.97 ± 0.01
ΔH (E218A IPMS [5]): 1.486 ± 0.031 kcal/mol
ΔS (E218A IPMS [5]): 28.5 cal/mol/K
inhibition at saturating L-leucine (Y169F MtIPMS): fully inhibited; also recorded: completely inhibited
N (stoichiometry for binding) (Y410F IPMS [6]): 0.91 ± 0.01
ΔH (Y410F IPMS [6]): 2.598 ± 0.048 kcal/mol
ΔS (Y410F IPMS [6]): 30.1 cal/mol/K
activity retained at saturating L-leucine (H379A IPMS [7]): 24%
β (fractional activity at saturating inhibitor) (H379A IPMS [7]): 0.24
activity retained, vss data (E218A IPMS [8]): 16%
β, limiting value for vi (E218A IPMS [8]): 0.61/0.16 ^c

CC(C)C(=O)C(=O)O [α-KIV, α-ketoisovalerate]
kcat1 (kcat) (Y169F IPMS): 4.75 ± 0.267 s⁻¹
Km (Y169F IPMS): 13.4 ± 2.6 µM
kcat1 (kcat) (Y410F IPMS [1]): 0.075 ± 0.0033 s⁻¹
Km (Y410F IPMS [1]): 0.5 ± 0.1 µM
K1 (H379A IPMS [2]): 1.6 ± 1.1 µM
K2 (H379A IPMS [2]): 19 ± 6 µM
kcat1 (H379A IPMS [2]): 0.7 ± 0.3 s⁻¹
kcat2 (H379A IPMS [2]): 1.48 ± 0.283 s⁻¹
K1 (E218A IPMS [3]): 1.6 ± 0.2 µM
K2 (E218A IPMS [3]): 39 ± 11 µM
kcat1 (E218A IPMS [3]): 0.0367 ± 0.0017 s⁻¹
kcat2 (E218A IPMS [3]): 0.0217 ± 0.0017 s⁻¹
